Data reported in PubChem BioAssay AID1963852 (Molecular Pharmacology Branch, DTP, NCI, 2024).

Test system: 282377-053-R-J1-PDC complex spheroid viability
Test: Anticancer human tumor 282377-053-R-J1-PDC patient-derived colon adenocarcinoma cell line growth inhibition [POLQ]
Conditions: for IC50: curve of first compound; for viability, T/C: stronger effect = lower value
Procedure, shortened: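 PDC + HUVEC + MSC complex spheroids; POLQ inhibitors ± partner drugs; top conc. at/near clinical Cmax, else 10 microM (SN-38 1 microM), half-log dilutions; 37 degrees C, 5% CO2.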

[1] = second compound 0.0316 µM, first compound 0.0316 µM
[2] = second compound 0.0316 µM, first compound 0.1 µM
[3] = second compound 0.0316 µM, first compound 0.316 µM
[4] = second compound 0.0316 µM, first compound 1 µM
[5] = second compound 0.0316 µM, first compound 3.16 µM
[6] = second compound 0.0316 µM, first compound 10 µM
[7] = second compound 0.1 µM, first compound 0.0316 µM
[8] = second compound 0.1 µM, first compound 0.1 µM
[9] = second compound 0.1 µM, first compound 0.316 µM
[10] = second compound 0.1 µM, first compound 1 µM
[11] = second compound 0.1 µM, first compound 3.16 µM
[12] = second compound 0.1 µM, first compound 10 µM
[13] = second compound 0.316 µM, first compound 0.0316 µM
[14] = second compound 0.316 µM, first compound 0.1 µM
[15] = second compound 0.316 µM, first compound 0.316 µM
[16] = second compound 0.316 µM, first compound 1 µM
[17] = second compound 0.316 µM, first compound 3.16 µM
[18] = second compound 0.316 µM, first compound 10 µM
[19] = second compound 1 µM, first compound 0.0316 µM
[20] = second compound 1 µM, first compound 0.1 µM
[21] = second compound 1 µM, first compound 0.316 µM
[22] = second compound 1 µM, first compound 1 µM
[23] = second compound 1 µM, first compound 3.16 µM
[24] = second compound 1 µM, first compound 10 µM
[25] = second compound 3.16 µM, first compound 0.0316 µM
[26] = second compound 3.16 µM, first compound 0.1 µM
[27] = second compound 3.16 µM, first compound 0.316 µM
[28] = second compound 3.16 µM, first compound 1 µM
[29] = second compound 3.16 µM, first compound 3.16 µM
[30] = second compound 3.16 µM, first compound 10 µM
[31] = second compound 10 µM, first compound 0.0316 µM
[32] = second compound 10 µM, first compound 0.1 µM
[33] = second compound 10 µM, first compound 0.316 µM
[34] = second compound 10 µM, first compound 1 µM
[35] = second compound 10 µM, first compound 3.16 µM
[36] = second compound 10 µM, first compound 10 µM
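Also: spheroids exposed to compounds for seven days.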
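For viability, T/C in this document: 100% = DMSO vehicle control viability.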

Compound CC1COCCN1c1cc(C2(O)CC3CCC(C2)O3)c2cnn(-c3ccn[nH]3)c2n1 (centres undefined) + COC1C(OC(N)=O)C(O)C(Oc2ccc3c(O)c(NC(=O)c4ccc(O)c(CC=C(C)C)c4)c(=O)oc3c2C)OC1(C)C has an IC50 (second compound 0.0316 µM) of 430 nM, an IC50 (second compound 0.1 µM) of 325 nM and an IC50 (second compound 0.316 µM) of 506 nM. It also gave an IC50 (second compound 1 µM) of 485 nM, an IC50 (second compound 3.16 µM) of 456 nM and an IC50 (second compound 10 µM) of 307 nM. For the same compound, the viability, T/C [1] was 112%, the viability, T/C [2] was 89.5% and the viability, T/C [3] was 53.8%. It also gave a viability, T/C [4] of 35.9%, a viability, T/C [5] of 24.6% and a viability, T/C [6] of 20.8%. The viability, T/C [7] was 88.8%, the viability, T/C [8] was 92.1% and the viability, T/C [9] was 50.4%. The viability, T/C [10] was 31.4%, the viability, T/C [11] was 28.2% and the viability, T/C [12] was 18.8%. For the same compound, the viability, T/C [13] was 92.8%, the viability, T/C [14] was 91.3% and the viability, T/C [15] was 60.8%. For the same compound, the viability, T/C [16] was 32.9%, the viability, T/C [17] was 34.8% and the viability, T/C [18] was 18.7%. The viability, T/C [19] was 92.4%, the viability, T/C [20] was 77.2% and the viability, T/C [21] was 57.9%. For the same compound, the viability, T/C [22] was 36.3%, the viability, T/C [23] was 28.4% and the viability, T/C [24] was 19.5%. For the same compound, the viability, T/C [25] was 115%, the viability, T/C [26] was 74.5% and the viability, T/C [27] was 54.8%. The viability, T/C [28] was 42%, the viability, T/C [29] was 33% and the viability, T/C [30] was 18.6%. It also gave a viability, T/C [31] of 101%, a viability, T/C [32] of 73.7% and a viability, T/C [33] of 47.3%. It also gave a viability, T/C [34] of 36.4%, a viability, T/C [35] of 27.9% and a viability, T/C [36] of 22.6%.

Compound O=C(Nc1ccc(O)c(NS(=O)(=O)c2ccc(F)cc2)c1)c1ccc(-c2ccccc2)cc1 + COC1C(OC(N)=O)C(O)C(Oc2ccc3c(O)c(NC(=O)c4ccc(O)c(CC=C(C)C)c4)c(=O)oc3c2C)OC1(C)C has an IC50 (second compound 0.0316 µM) of over 10000 nM, an IC50 (second compound 0.1 µM) of over 10000 nM and an IC50 (second compound 0.316 µM) of over 10000 nM. For the same compound, the IC50 (second compound 1 µM) was over 10000 nM, the IC50 (second compound 3.16 µM) was over 10000 nM and the IC50 (second compound 10 µM) was over 10000 nM. For the same compound, the viability, T/C [1] was 120%, the viability, T/C [2] was 117% and the viability, T/C [3] was 109%. It also gave a viability, T/C [4] of 113%, a viability, T/C [5] of 133% and a viability, T/C [6] of 94.5%. It also gave a viability, T/C [7] of 122%, a viability, T/C [8] of 125% and a viability, T/C [9] of 117%. The viability, T/C [10] was 127%, the viability, T/C [11] was 127% and the viability, T/C [12] was 97%. The viability, T/C [13] was 115%, the viability, T/C [14] was 108% and the viability, T/C [15] was 100%. For the same compound, the viability, T/C [16] was 108%, the viability, T/C [17] was 112% and the viability, T/C [18] was 94.5%. It also gave a viability, T/C [19] of 116%, a viability, T/C [20] of 99.6% and a viability, T/C [21] of 118%. It also gave a viability, T/C [22] of 115%, a viability, T/C [23] of 120% and a viability, T/C [24] of 122%. It also gave a viability, T/C [25] of 98.2%, a viability, T/C [26] of 118% and a viability, T/C [27] of 106%. For the same compound, the viability, T/C [28] was 114%, the viability, T/C [29] was 99.8% and the viability, T/C [30] was 104%. The viability, T/C [31] was 127%, the viability, T/C [32] was 95.3% and the viability, T/C [33] was 94.9%. For the same compound, the viability, T/C [34] was 127%, the viability, T/C [35] was 104% and the viability, T/C [36] was 93.5%.
